Where “and” joins values, the source holds several entries; their conditions need not be identical. Equal values may be shown once. Toxic doses and inconclusive results are not listed. Rule as the data show it: active = T/C of 150% or more; inactive = T/C below 125%.
System: L1210 leukemia ip in BDF1 mice, survival T/C
Experiment: NCI In Vivo Anticancer Drug Screen. Data for tumor model L1210 Leukemia (intraperitoneal) in B6D2F1 (BDF1) mice
Details: higher = longer survival
In short: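 Ratio derived from survival: compound-dosed mice over vehicle-dosed mice, all bearing a transplantable tumor.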

[1] = endpoint: mean survival time, dose: 100.0 mg/kg/injection, schedule: Q01DX001 (ip), vehicle: carboxymethylcellulose (CMC)
[2] = endpoint: mean survival time, dose: 200.0 mg/kg/injection, schedule: Q01DX001 (ip), vehicle: carboxymethylcellulose (CMC)
[3] = endpoint: mean survival time, dose: 400.0 mg/kg/injection, schedule: Q01DX001 (ip), vehicle: carboxymethylcellulose (CMC)
[4] = endpoint: mean survival time, dose: 25.0 mg/kg/injection, schedule: Q01DX009 (ip), vehicle: Klucel (hydroxypropylcellulose) (HPC)
[5] = endpoint: mean survival time, dose: 50.0 mg/kg/injection, schedule: Q01DX009 (ip), vehicle: Klucel (hydroxypropylcellulose) (HPC)
[6] = endpoint: mean survival time, dose: 100.0 mg/kg/injection, schedule: Q01DX009 (ip), vehicle: Klucel (hydroxypropylcellulose) (HPC)
[7] = endpoint: mean survival time, dose: 200.0 mg/kg/injection, schedule: Q01DX009 (ip), vehicle: Klucel (hydroxypropylcellulose) (HPC)

Measured: T/C

C=CCOC(=O)C(F)(F)F
inactive: endpoint: mean survival time, dose: 100.0 mg/kg/injection, schedule: Q04DX002 (ip), vehicle: saline 89 % of control | endpoint: mean survival time, dose: 200.0 mg/kg/injection, schedule: Q04DX002 (ip), vehicle: saline 86 % of control

O=C1C2C3C=CC(C3)C2C(=O)C2C3C=CC(C3)C12 (centres undefined)
inactive: endpoint: mean survival time, dose: 50.0 mg/kg/injection, schedule: Q01DX001 (ip), vehicle: carboxymethylcellulose (CMC) 103 % of control | [1] 93 % of control | [2] 100 % of control | [3] 112 % of control

O=[N+]([O-])c1ccc2c(c1)/C(=N\O)c1cc(Cl)c(Cl)cc1-2
inactive: [1] 98 % of control | endpoint: mean survival time, dose: 100.0 mg/kg/injection, schedule: Q04DX003 (ip), vehicle: acetone 94 % of control | [2] 98 % of control | endpoint: mean survival time, dose: 200.0 mg/kg/injection, schedule: Q04DX003 (ip), vehicle: acetone 100 % of control | [3] 95 % of control | endpoint: mean survival time, dose: 400.0 mg/kg/injection, schedule: Q04DX003 (ip), vehicle: acetone 96 % of control

COc1cc(-c2nc(-c3ccc(N=Cc4ccc(N(CCOS(C)(=O)=O)CCOS(C)(=O)=O)cc4C)cc3)cs2)cc(OC)c1OC
inactive: endpoint: mean survival time, dose: 25.0 mg/kg/injection, schedule: Q04DX003 (ip), vehicle: saline with Tween-80 102 % of control | endpoint: mean survival time, dose: 50.0 mg/kg/injection, schedule: Q04DX003 (ip), vehicle: saline with Tween-80 102 % of control | endpoint: mean survival time, dose: 66.0 mg/kg/injection, schedule: Q04DX003 (ip), vehicle: saline with Tween-80 115 % of control and 120 % of control | endpoint: mean survival time, dose: 150.0 mg/kg/injection, schedule: Q04DX003 (ip), vehicle: saline with Tween-80 96 % of control and 89 % of control | endpoint: mean survival time, dose: 200.0 mg/kg/injection, schedule: Q04DX003 (ip), vehicle: saline with Tween-80 110 % of control

CSCC1OC(n2cnc3c(N)ncnc32)C(O)C1O (centres undefined)
inactive: endpoint: mean survival time, dose: 50.0 mg/kg/injection, schedule: Q01DX001 (ip), vehicle: saline with Tween-80 96 % of control | endpoint: mean survival time, dose: 100.0 mg/kg/injection, schedule: Q01DX001 (ip), vehicle: saline with Tween-80 96 % of control | endpoint: mean survival time, dose: 200.0 mg/kg/injection, schedule: Q01DX001 (ip), vehicle: saline with Tween-80 96 % of control

COc1ccc(C2c3cc4c(c(OC)c3CC3OCC(=O)C32)OCO4)cc1OC (centres undefined)
inactive: endpoint: mean survival time, dose: 12.5 mg/kg/injection, schedule: Q01DX009 (ip), vehicle: Klucel (hydroxypropylcellulose) (HPC) 110 % of control | [4] 110 % of control | [5] 123 % of control | endpoint: mean survival time, dose: 50.0 mg/kg/injection, schedule: Q04DX003 (ip), vehicle: saline 110 % of control | endpoint: mean survival time, dose: 75.0 mg/kg/injection, schedule: Q01DX001 (ip), vehicle: Klucel (hydroxypropylcellulose) (HPC) 106 % of control | [6] 121 % of control | endpoint: mean survival time, dose: 100.0 mg/kg/injection, schedule: Q04DX003 (ip), vehicle: saline 116 % of control | endpoint: mean survival time, dose: 150.0 mg/kg/injection, schedule: Q01DX001 (ip), vehicle: Klucel (hydroxypropylcellulose) (HPC) 112 % of control | [7] 101 % of control | endpoint: mean survival time, dose: 200.0 mg/kg/injection, schedule: Q04DX003 (ip), vehicle: saline 116 % of control | endpoint: mean survival time, dose: 300.0 mg/kg/injection, schedule: Q01DX001 (ip), vehicle: Klucel (hydroxypropylcellulose) (HPC) 104 % of control | endpoint: mean survival time, dose: 400.0 mg/kg/injection, schedule: Q04DX003 (ip), vehicle: saline 110 % of control | endpoint: mean survival time, dose: 600.0 mg/kg/injection, schedule: Q01DX001 (ip), vehicle: Klucel (hydroxypropylcellulose) (HPC) 115 % of control | endpoint: mean survival time, dose: 800.0 mg/kg/injection, schedule: Q04DX003 (ip), vehicle: saline 118 % of control | endpoint: mean survival time, dose: 1200.0 mg/kg/injection, schedule: Q01DX001 (ip), vehicle: Klucel (hydroxypropylcellulose) (HPC) 118 % of control | endpoint: median survival time, dose: 12.5 mg/kg/injection, schedule: Q01DX009 (ip), vehicle: Klucel (hydroxypropylcellulose) (HPC) 105 % of control | endpoint: median survival time, dose: 25.0 mg/kg/injection, schedule: Q01DX009 (ip), vehicle: Klucel (hydroxypropylcellulose) (HPC) 100 % of control | endpoint: median survival time, dose: 50.0 mg/kg/injection, schedule: Q01DX009 (ip), vehicle: Klucel (hydroxypropylcellulose) (HPC) 111 % of control | endpoint: median survival time, dose: 100.0 mg/kg/injection, schedule: Q01DX009 (ip), vehicle: Klucel (hydroxypropylcellulose) (HPC) 116 % of control

CCCc1cc(CN2CCCCC2)c(O)c(CN2CCCCC2)c1O
inactive: endpoint: mean survival time, dose: 100.0 mg/kg/injection, schedule: Q01DX001 (ip), vehicle: saline 96 % of control | endpoint: mean survival time, dose: 200.0 mg/kg/injection, schedule: Q01DX001 (ip), vehicle: saline 95 % of control | endpoint: mean survival time, dose: 400.0 mg/kg/injection, schedule: Q01DX001 (ip), vehicle: saline 88 % of control

O=[N+]([O-])C1CC=CCC1C(Cl)(Cl)Cl (centres undefined)
inactive: endpoint: mean survival time, dose: 5.0 mg/kg/injection, schedule: Q04DX003 (ip), vehicle: saline sonified 95 % of control | endpoint: mean survival time, dose: 10.0 mg/kg/injection, schedule: Q04DX003 (ip), vehicle: saline sonified 110 % of control | endpoint: mean survival time, dose: 20.0 mg/kg/injection, schedule: Q04DX003 (ip), vehicle: saline sonified 98 % of control

O=C(CSSCC(=O)Nc1ccccc1O)Nc1ccccc1O
inactive: endpoint: mean survival time, dose: 100.0 mg/kg/injection, schedule: Q01DX001 (ip), vehicle: other 88 % of control | endpoint: mean survival time, dose: 200.0 mg/kg/injection, schedule: Q01DX001 (ip), vehicle: other 93 % of control | endpoint: mean survival time, dose: 400.0 mg/kg/injection, schedule: Q01DX001 (ip), vehicle: other 89 % of control

O=NC1C(Cl)C2CC1C1C(Br)C(Br)CC21 (centres undefined)
inactive: endpoint: mean survival time, dose: 12.5 mg/kg/injection, schedule: Q04DX003 (ip), vehicle: Klucel (hydroxypropylcellulose) (HPC) 100 % of control | [4] 93 % of control | endpoint: mean survival time, dose: 25.0 mg/kg/injection, schedule: Q04DX003 (ip), vehicle: Klucel (hydroxypropylcellulose) (HPC) 102 % of control | endpoint: mean survival time, dose: 50.0 mg/kg/injection, schedule: Q01DX001 (ip), vehicle: Klucel (hydroxypropylcellulose) (HPC) 95 % of control | [5] 93 % of control | endpoint: mean survival time, dose: 50.0 mg/kg/injection, schedule: Q04DX003 (ip), vehicle: Klucel (hydroxypropylcellulose) (HPC) 100 % of control | endpoint: mean survival time, dose: 100.0 mg/kg/injection, schedule: Q01DX001 (ip), vehicle: Klucel (hydroxypropylcellulose) (HPC) 92 % of control | [6] 88 % of control | endpoint: mean survival time, dose: 150.0 mg/kg/injection, schedule: Q01DX009 (ip), vehicle: saline 90 % of control | endpoint: mean survival time, dose: 200.0 mg/kg/injection, schedule: Q01DX001 (ip), vehicle: Klucel (hydroxypropylcellulose) (HPC) 89 % of control | endpoint: mean survival time, dose: 335.0 mg/kg/injection, schedule: Q01DX009 (ip), vehicle: saline 94 % of control

CCC(C)(C)NC1=C(Cl)C(=O)c2ccccc2C1=O
inactive: endpoint: mean survival time, dose: 6.25 mg/kg/injection, schedule: Q01DX001 (ip), vehicle: saline with Tween-80 95 % of control | endpoint: mean survival time, dose: 12.5 mg/kg/injection, schedule: Q01DX001 (ip), vehicle: saline with Tween-80 106 % of control

OC(C/C(Cc1ccccc1)=N/Nc1ccccc1)(C(F)(F)F)C(F)(F)F
inactive: [6] 94 % of control | endpoint: mean survival time, dose: 100.0 mg/kg/injection, schedule: Q04DX003 (ip), vehicle: Klucel (hydroxypropylcellulose) (HPC) 96 % of control | [7] 96 % of control | endpoint: mean survival time, dose: 200.0 mg/kg/injection, schedule: Q04DX003 (ip), vehicle: Klucel (hydroxypropylcellulose) (HPC) 88 % of control | endpoint: mean survival time, dose: 400.0 mg/kg/injection, schedule: Q01DX009 (ip), vehicle: Klucel (hydroxypropylcellulose) (HPC) 100 % of control | endpoint: mean survival time, dose: 400.0 mg/kg/injection, schedule: Q04DX003 (ip), vehicle: Klucel (hydroxypropylcellulose) (HPC) 107 % of control

Cl/C(=C/C=C(c1ccccc1)c1ccccc1)c1ccccc1
inactive: endpoint: mean survival time, dose: 100.0 mg/kg/injection, schedule: Q04DX002 (ip), vehicle: saline with Tween-80 88 % of control | endpoint: mean survival time, dose: 200.0 mg/kg/injection, schedule: Q04DX002 (ip), vehicle: saline with Tween-80 88 % of control

— PubChem BioAssay AID248 (DTP/NCI, 2004)
